Reference: the NIST ThermoML archive (doi:10.1021/acs.jced.9b00396)

Conditions: Liquid; for speed of sound: Frequency=3 MHz, Single path-length method; for mass density: Vibrating tube method

OCc1ccccc1 [benzenemethanol]
Conditions | mass density [kg/m3] | speed of sound [m/s]
293.15 K, 100 kPa | 1045.6 | 1541
298.15 K, 100 kPa | 1041.8 | 1526
298.15 K, 500 kPa | 1042 | –
298.15 K, 1000 kPa | 1042 | –
298.15 K, 2500 kPa | 1043 | –
298.15 K, 5000 kPa | 1044 | –
298.15 K, 7500 kPa | 1045 | –
298.15 K, 10000 kPa | 1046 | –
298.15 K, 12500 kPa | 1047 | –
298.15 K, 15000 kPa | 1049 | –
298.15 K, 17500 kPa | 1050 | –
298.15 K, 20000 kPa | 1051 | –
298.15 K, 22500 kPa | 1052 | –
298.15 K, 25000 kPa | 1053 | –
298.15 K, 27500 kPa | 1055 | –
298.15 K, 30000 kPa | 1056 | –
298.15 K, 32500 kPa | 1057 | –
298.15 K, 35000 kPa | 1058 | –
313.15 K, 100 kPa | 1030 | 1479
318.15 K, 500 kPa | 1026 | –
318.15 K, 1000 kPa | 1026 | –
318.15 K, 2500 kPa | 1027 | –
318.15 K, 5000 kPa | 1028 | –
318.15 K, 7500 kPa | 1030 | –
318.15 K, 10000 kPa | 1031 | –
318.15 K, 12500 kPa | 1032 | –
318.15 K, 15000 kPa | 1034 | –
318.15 K, 17500 kPa | 1035 | –
318.15 K, 20000 kPa | 1036 | –
318.15 K, 22500 kPa | 1037 | –
318.15 K, 25000 kPa | 1039 | –
318.15 K, 27500 kPa | 1040 | –
318.15 K, 30000 kPa | 1041 | –
318.15 K, 32500 kPa | 1042 | –
318.15 K, 35000 kPa | 1043 | –
333.15 K, 100 kPa | 1011.3 | 1417
338.15 K, 500 kPa | 1010 | –
338.15 K, 1000 kPa | 1010 | –
338.15 K, 2500 kPa | 1011 | –
338.15 K, 5000 kPa | 1013 | –
338.15 K, 7500 kPa | 1014 | –
338.15 K, 10000 kPa | 1016 | –
338.15 K, 12500 kPa | 1017 | –
338.15 K, 15000 kPa | 1018 | –
338.15 K, 17500 kPa | 1020 | –
338.15 K, 20000 kPa | 1021 | –
338.15 K, 22500 kPa | 1023 | –
338.15 K, 25000 kPa | 1024 | –
338.15 K, 27500 kPa | 1025 | –
338.15 K, 30000 kPa | 1026 | –
338.15 K, 32500 kPa | 1028 | –
338.15 K, 35000 kPa | 1029 | –
358.15 K, 500 kPa | 994 | –
358.15 K, 1000 kPa | 994 | –
358.15 K, 2500 kPa | 995 | –
358.15 K, 5000 kPa | 997 | –
358.15 K, 7500 kPa | 998 | –
358.15 K, 10000 kPa | 1000 | –
358.15 K, 12500 kPa | 1001 | –
358.15 K, 15000 kPa | 1003 | –
358.15 K, 17500 kPa | 1005 | –
358.15 K, 20000 kPa | 1006 | –
358.15 K, 22500 kPa | 1007 | –
358.15 K, 25000 kPa | 1009 | –
358.15 K, 27500 kPa | 1010 | –
358.15 K, 30000 kPa | 1012 | –
358.15 K, 32500 kPa | 1013 | –
358.15 K, 35000 kPa | 1014 | –
378.15 K, 500 kPa | 977 | –
378.15 K, 1000 kPa | 978 | –
378.15 K, 2500 kPa | 979 | –
378.15 K, 5000 kPa | 980 | –
378.15 K, 7500 kPa | 982 | –
378.15 K, 10000 kPa | 984 | –
378.15 K, 12500 kPa | 985 | –
378.15 K, 15000 kPa | 987 | –
378.15 K, 17500 kPa | 989 | –
378.15 K, 20000 kPa | 990 | –
378.15 K, 22500 kPa | 992 | –
378.15 K, 25000 kPa | 994 | –
378.15 K, 27500 kPa | 995 | –
378.15 K, 30000 kPa | 997 | –
378.15 K, 32500 kPa | 998 | –
378.15 K, 35000 kPa | 1000 | –
398.15 K, 500 kPa | 960 | –
398.15 K, 1000 kPa | 960 | –
398.15 K, 2500 kPa | 962 | –
398.15 K, 5000 kPa | 963 | –
398.15 K, 7500 kPa | 965 | –
398.15 K, 10000 kPa | 967 | –
398.15 K, 12500 kPa | 969 | –
398.15 K, 15000 kPa | 971 | –
398.15 K, 17500 kPa | 973 | –
398.15 K, 20000 kPa | 974 | –
398.15 K, 22500 kPa | 976 | –
398.15 K, 25000 kPa | 978 | –
398.15 K, 27500 kPa | 979 | –
398.15 K, 30000 kPa | 981 | –
398.15 K, 32500 kPa | 983 | –
398.15 K, 35000 kPa | 985 | –
418.15 K, 500 kPa | 942 | –
418.15 K, 1000 kPa | 943 | –
418.15 K, 2500 kPa | 944 | –
418.15 K, 5000 kPa | 946 | –
418.15 K, 7500 kPa | 948 | –
418.15 K, 10000 kPa | 950 | –
418.15 K, 12500 kPa | 952 | –
418.15 K, 15000 kPa | 954 | –
418.15 K, 17500 kPa | 956 | –
418.15 K, 20000 kPa | 958 | –
418.15 K, 22500 kPa | 960 | –
418.15 K, 25000 kPa | 962 | –
418.15 K, 27500 kPa | 964 | –
418.15 K, 30000 kPa | 965 | –
418.15 K, 32500 kPa | 967 | –
418.15 K, 35000 kPa | 969 | –
438.15 K, 500 kPa | 924 | –
438.15 K, 1000 kPa | 924 | –
438.15 K, 2500 kPa | 926 | –
438.15 K, 5000 kPa | 928 | –
438.15 K, 7500 kPa | 930 | –
438.15 K, 10000 kPa | 933 | –
438.15 K, 12500 kPa | 935 | –
438.15 K, 15000 kPa | 937 | –
438.15 K, 17500 kPa | 939 | –
438.15 K, 20000 kPa | 941 | –
438.15 K, 22500 kPa | 944 | –
438.15 K, 25000 kPa | 946 | –
438.15 K, 27500 kPa | 948 | –
438.15 K, 30000 kPa | 949 | –
438.15 K, 32500 kPa | 952 | –
438.15 K, 35000 kPa | 953 | –
458.15 K, 500 kPa | 904 | –
458.15 K, 1000 kPa | 905 | –
458.15 K, 2500 kPa | 907 | –
458.15 K, 5000 kPa | 909 | –
458.15 K, 7500 kPa | 912 | –
458.15 K, 10000 kPa | 915 | –
458.15 K, 12500 kPa | 917 | –
458.15 K, 15000 kPa | 920 | –
458.15 K, 17500 kPa | 922 | –
458.15 K, 20000 kPa | 924 | –
458.15 K, 22500 kPa | 927 | –
458.15 K, 25000 kPa | 929 | –
458.15 K, 27500 kPa | 931 | –
458.15 K, 30000 kPa | 933 | –
458.15 K, 32500 kPa | 935 | –
458.15 K, 35000 kPa | 937 | –
473.15 K, 500 kPa | 889 | –
473.15 K, 1000 kPa | 891 | –
473.15 K, 2500 kPa | 892 | –
473.15 K, 5000 kPa | 895 | –
473.15 K, 7500 kPa | 898 | –
473.15 K, 10000 kPa | 901 | –
473.15 K, 12500 kPa | 903 | –
473.15 K, 15000 kPa | 906 | –
473.15 K, 17500 kPa | 909 | –
473.15 K, 20000 kPa | 911 | –
473.15 K, 22500 kPa | 914 | –
473.15 K, 25000 kPa | 916 | –
473.15 K, 27500 kPa | 919 | –
473.15 K, 30000 kPa | 921 | –
473.15 K, 32500 kPa | 923 | –
473.15 K, 35000 kPa | 925 | –
